This is an account of results in US9370606B2, “Scaffold-free self-organized 3D synthetic tissue” (Two Cells, Co., Ltd., priority 2003, dated 2016).

The subject of assay [1] is synovium-derived synthetic tissue. In words: Influence of actin regulatory agents on contraction of a synthetic tissue. The assay is classed as cell-based. As to conditions: dihydrocytochalasin B 3 μM, Y27632 10 μM; after detachment. On the procedure:
Dihydrocytochalasin B and Y27632 (Yamanouchi Pharmaceutical), which are known to have an actin depolymerizing function, were used to study their influence on the contraction of a synthetic tissue.
A synovium-derived synthetic tissue was produced by monolayer culture. The tissue was detached from a culture dish. The tissue was cultured in medium in the presence of dihydrocytochalasin B (3 μM) and Y27632 (10 μM). The transition of the radius of the tissue is shown every unit culture time in FIG. 40. […] Dihydrocytochalasin B and Y27632 are representative exemplary actin polymerization inhibitors. It will be understood by those skilled in the art that other actin polymerization inhibitors, such as cytochalasin D and the like, have a similar function.

Another assay has as its system synovial cells. In words: HE staining of synthetic tissue produced from synovial cells. The assay is classed as cell-based, pig. On the procedure: Synovial cells were collected from a knee joint of a pig (LWD ternary hybrid, 2-3 months old upon removal of cells), followed by treatment with collagenase. The cells were cultured and subcultured in 10% FBS-DMEM medium (FBS was obtained from HyClone, DMEM was obtained from GIBCO). It has been reported that 10th passage synovial cells still have pluripotency. Although cells of 10 or less passages were used in this example, cells of more than 10 passages may be used depending on the application. Autotransplantation was performed for humans, where a sufficient number of cells were used and the cells were cultured for a short period of time so as to reduce the risk of infection or the like. Synovial cells (4.0×10^6) were cultured in 2 ml of 10% FBS-DMEM medium in a 35-mm dish, a 60-mm dish, or 100-mm dish (BD Biosciences, culture dish and multiwell cell culture plate). In this case, ascorbic acid was added. The dishes, the ascorbic acid concentrations, and the cell concentration are described below. Ascorbic acid 2-phosphate: 0 mM, 0.1 mM, 0.5 mM; 1 mM, 2 mM, and 5 mM Medium was exchanged two times per week until the end of a predetermined culture period. At the end of the culture period, a cell sheet was detached from the dish by pipetting circumferentially around the dish using a 100-μl pipetteman. After detachment, the cell sheet was made as flat as possible by lightly shaking the dish. […]

In assay [2] the test system is synovial membrane-derived synthetic tissue. In words: Collagen content measurement (hydroxyproline) of synovial membrane-derived synthetic tissue. The assay is classed as cell-based, pig. On the procedure:
In order to determine the collagen concentration, the collagen content was measured. […] The amount of produced collagen is substantially proportional to the time period of culture (FIG. 8). Next, it was determined whether or not collagen (extracellular matrix) is sufficiently secreted after implantation of a synthetic tissue of the present invention. The following protocol was used. Culture periods: 3 days, 7 days, 14 days, and 21 days, Concentrations of ascorbic acid 2-phosphate: 0 mM, 0.1 mM, 1 mM, and 5 mM Under the above-described conditions, a synovial membrane-derived synthetic tissue was produced. 6 N HCl was added to culture medium for the synthetic tissue, followed by hydrolysis at 105° C. for 18 hours. The medium was oxidized with chloramine T. Thereafter, the synthetic tissue was subjected to color development using Ehrlich's Reagent Solution (2 g of p-dimethylamino-benzaldehyde+3 ml of 60% perchloric acid; isopropanol was diluted at 3:13), followed by measurement of absorbance.

For another assay, the system named is monolayer culture cells. In words: Conditions for detachment during production of a synthetic tissue. The assay is classed as cell-based. On the procedure: In this example, it was determined whether or not chemical detachment can be used instead of physical detachment (mechanical detachment (e.g., pipetting, etc.)) during the production of the synthetic tissue of the present invention.
Cell density: 4×10^4 cells/cm^2
Conditions: CO2 5%, air 95%, 37° C.
Medium: DMEM/F12 (FBS 10%) supplemented with 10 ng/ml TGFβ1.
This medium was used to conduct culture under the conditions described in Examples 14 and 15 to produce a synthetic tissue.
Medium: DMEM (GIBCO), FBS (HyClone) 10%, ITS+Premix (insulin, transferrin, selenious acid) (BD Biosciences) 6.25 μg/ml, dexamethasone (Sigma) 10^−7 M, ascorbic acid (WAKO) 50 μg/ml, pyrubic acid (SIGMA) 100 μg/ml.

Take `C[C@@H](N)[C@H]1CC[C@H](C(=O)Nc2ccncc2)CC1` [Y27632]: the “contraction of the synthetic tissue (radius over culture time)” value in assay [1] is listed as “inhibited”.
As to `C=C1[C@@H](C)[C@H]2[C@H](Cc3ccccc3)NC(=O)[C@]23OC(=O)CC[C@H](O)CCC[C@@H](C)C/C=C/[C@H]3[C@@H]1O` [dihydrocytochalasin B, Dihydrocytochalasin B], in assay [1], the “contraction of the synthetic tissue (radius over culture time)” value was “inhibited”.
As to `O=C1O[C@H]([C@@H](O)CO)C(O)=C1OP(=O)(O)O` [ascorbic acid 2-phosphate], in the assay on synovial cells (0.1 mM or more), the “formation of an extracellular matrix” value is “promoted”. For the same molecule, the “Eosin staining of the synthetic tissue” value in the assay with synovial cells (concentration of more than 0.1 mM) is recorded as “more intense”. Also, in assay [2] (0, 0.1, 1 and 5 mM, culture 3 to 21 days), the “quantities of collagen produced, dependence on concentration” value was 0 mM<<5 mM<1 mM≦0.1 mM. For the same molecule, in assay [2] (0.1 mM or more added), the “production of collagen (amount of hydroxyproline)” value was “significantly promoted”. Also, the “collagene content in the synthetic tissue” value in assay [2] (0.1 mM or more added, any of the culture periods) is given as “significantly increased”.
For “TGF-β: transforming growth factor, 10 ng/ml TGFβ1 in medium”, in the assay on monolayer culture cells (10 ng/ml TGFβ1 in DMEM/F12 (FBS 10%)), the “detachment of monolayer culture cells from the culture dish” value is given as “more easily detached”. In addition, the “effect on culture cells” value in the assay on monolayer culture cells (added in monolayer culture, no physical stimulus) was “has the effect of detaching culture cells”.
